Results as given in patent US20080138850A1, “Skin Model” (SYMRISE GmbH & Co. KG, priority 2006, published 2008).

Key:
Assay type in all cases: cell-based
[1] = test system: full thickness human skin; assay: Skin pigmentation in full thickness human skin organ culture; details: beta arbutin 1% vs vehicle, day 6 of organ culture
Source text: FIG. 2(A) depicts human skin treated with beta arbutin 1% vs negative control (“vehicle”) at day 6 of organ culture.
Beta arbutin (hydroquinone glucoside), a recognized inhibitor of tyrosinase, has been selected as positive control for skin lightening.

pig skin samples = assay: Skin pigmentation (melanin, Fontana-Masson staining) in pig skin organ culture; details: Pietrain dorsal pig skin, 1% w/v topical, re-applied daily
Method: For this experiment, full thickness pig skin has been excised from dorsal part of a pig with 30±5 follicles/cm^2 (age: 8 weeks; weight: 24 kg). The skin samples have been cut under sterile condition in smaller pieces (surface: 4×4; thickness: 3 mm) and placed in a 6 wells plate (two samples per well) over a sterilized cotton immerse in 5 ml of culture medium, incubated at 37° C., 5% CO2, 100% humidity, as described above. Culture medium has been renewed every other day.
Thus, 10 μl of beta arbutin (1% w/v in culture medium) per sample has been added topically and re-applied daily. As negative control, culture medium has been applied topically by following the same experimental procedures as for beta-arbutin. Six pig skin samples have been used for each treatment (i.e. beta arbutin and culture medium).
The pig skin samples were incubated for either 2 or 6 days respectively.
Following organ culture procedure, skin samples have been embedded in cryomedium by using liquid nitrogen. […]
The amount of melanin present in each slide has been evaluated by measuring the areas covered by the black spots, by using the software ImageJ (National Institute of Health, US). […]
The data from all samples of the same experimental group have been pooled and the means ±SEM calculated. The statistical significance (P-value) was been determined by Mann-Whitney U test for nonparametric samples. […]

[2] = test system: hair follicle matrix cells in pig skin organ culture; assay: Hair follicle matrix cell proliferation (Ki67/DAPI double staining) in pig skin organ culture; details: 25 ng/ml in culture medium
Method: For this experiment, full thickness skin samples had been excised from dorsal part of a pig with 30±5 follicles/cm^2 (age: 8 weeks; weight: 22 kg).
As a consequence, changes in the proliferation rate of hair follicles matrix cells have been investigated in pig skin organ culture following incubation with recognized modulators of hair growth.
Two different experimental procedures have been investigated:
I. In the first experiment, the pig skin samples had been incubated with the potential modulators from day 0 to day 6.
II. In the second experiment, the skin had been kept in culture until day 14. Then, the skin has been incubated with the potential modulators up day 21.
Following the organ culture procedure, skin samples had been embedded in cryomedium by using liquid nitrogen. Embedded samples had been cut in thin slides (thickness: 7 μm) and were then immunolabelled by performing Ki67/DAPI double staining to detect proliferative cells localized on the bulb region. In particular, while Ki67 labels proliferating cells, DAPI stains all cell nuclei. Quantitative analysis has been performed by using a custom modified version of the software ImageJ (National Institute of Health, US). The data from all samples of the same experimental group have been pooled and the means ±SEM calculated. The statistical significance (P-value) has been determined by Mann-Whitney U test for nonparametric samples. […]

Molecule	inhibition of skin pigmentation [1] [%]	decrease of pigmentation in comparison to the negative control (pig skin samples; after 2 days) [%]	decrease of pigmentation in comparison to the negative control (pig skin samples; after 6 days) [%]	inhibition of hair matrix cell proliferation versus untreated control ([2]; incubated day 0 to day 6, read at day 6) [%]	inhibition of hair matrix cell proliferation versus untreated control ([2]; incubated day 14 to day 21, read at day 21) [%]
OC[C@H]1O[C@@H](Oc2ccc(O)cc2)[C@H](O)[C@@H](O)[C@@H]1O [beta arbutin, hydroquinone glucoside]	31	52.4	44.2	–	–
transforming growth factor beta 2 (protein, UniProt P61812 303-414, looked up) Transforming growth factor …: ALDAAYCFRNVQDNCCLRPLYIDFKRDLGWKWIHEPKGYNANFCAGACPYLWSSDTQHSRVLSLYNTINPEASASPCCVSQDLEPLTILYYIGKTPKIEQLSNMIVKSCKCS	–	–	–	24.8	36.1
